Test results taken from patent US20120022143A1, “RNA Interference Mediated Inhibition of the Thymic Stromal Lymphopoietin (TSLP) Gene Expression Using Short Interfering Nucliec Acid (siNA)” (Merck Sharp & Dohme Corp, priority 2009, published 2012).
[invAb] = inverted abasic unit; d = 2'-deoxy (DNA); m = 2'-O-methyl; r = 2'-OH (RNA); f = 2'-fluoro

Tests used:
TSLP mRNA = experiment: Initial screening: TSLP mRNA knock-down by RT-PCR (Taqman) after RNAiMax transfection of NHLF cells; format: cell-based; details: 10 nM siNA, human NHLF cells, 24 hrs post-transfection, relative to non-targeting control, normalized to GAPDH; mean ± s.d. from 2 experiments
Method: (§1) All cells were obtained from ATCC (Manassas, Va.) unless otherwise indicated. Cells were grown and transfected under standard conditions, which are detailed below for each cell line.
NHLF (human; Lonza cat# CC-2512): Cells were cultured at 37° C. in the presence of 5% CO2 and grown Fibroblast Basal Medium (Lonza cat# CC-3β2) supplemented growth factors (provided with the kit) and 100 μg/mL of streptomycin and 100 U/mL penicillin.
(§2) All transfections were performed using RNAiMax (Invitrogen Cat# 13778-150) as per the manufacturer's instructions.
(§3) Both human and murine cell lines were transfected in the similar fashion. Cells were plated in all wells of a tissue-culture treated, 96-well plate at a final count of 5,000 cells/well in […], of appropriate culture media. Cells were cultured for 24 hours after plating at 37° C. in the presence of 5% CO2.
(§4) After 24 hours, complexes containing siNA and RNAiMax were created as follows: A solution of RNAiMax diluted 33-fold in OPTI-MEM was prepared. In parallel, solutions of the siNAs for testing were prepared to a final concentration of 120 nM in OPTI-MEM. After incubation of RNAiMax/OPTI-MEM solution at room temperature for 5 min, an equal volume of the siNA solution and the RNAiMax solution were added together for each of the siNAs.
(§5) This solution was incubated at room temperature for 20 minutes. After incubation, 20 uL of the solution was added to each of the relevant wells.
(§6) The final concentration of siNA in each well was 10 nM and the final volume of RNAiMax in each well was 0.3 ul.
(§7) The time of incubation with the RNAiMax-siNA complexes was 24 hours, unless otherwise indicated. There was no change in media between the transfection and harvesting of the cells unless otherwise indicated.
(§8) RNA was extracted from a 96-well plate using the TaqMan® Gene Expression Cells-to-CT™ Kit (Cat# 4399002) with a modified protocol. Briefly, a 60 uL (1 plate) or 110 uL (2 plates) of the Lysis Solution with DNase I was dispensed into each well of the Lysis Buffer Plate (twin.tec full skirt plate). The lysis buffer and stop plates were stored at 4° C. until the cells were washed.
(§9) The plate was spun at 1100 rpm for 5 minutes. The culture medium was aspirated and discarded from the wells of the culture plate. The lysis was performed automatically using a BioMek FX instrument and method. After the Biomek method was completed, the lysis plate was incubated for 2 min. at room temperature. The lysis plate can be stored for 2 hours at 4° C., or at −20° C. or −80° C. for two months.
(§10) Each well of the reverse transcription plate required 10 uL of 2× reverse transcriptase Buffer, luL of 20× reverse transcription enzyme and 2 uL of nuclease-free water. The reverse transcription master mix was prepared by mixing 2× reverse transcription buffer, 20× reverse transcription enzyme mix, and nuclease-free water. 13 uL of the reverse transcription master mix was dispensed into each well of the reverse transcription plate (semi-skirted). A separate reverse transcription plate was prepared for each cell plate. The plate was loaded onto a Biomek NX or Biomek FX Dual-96 and the Biomek method was run. The program is programmed to automatically added 7 uL of lysate from the cell lysis procedure described above into each well of the reverse transcription plate. The plate is sealed and spun on a centrifuge (1000 rpm for 30 seconds) to settle the contents to the bottom of the reverse transcription plate. The plate is placed in a thermocycler at 37° C. for 60 min, 95° C. for 5 min, and 4° C. until the plate is removed from the thermocycler. Upon removal, if not used immediately, the plate was frozen at −20° C.
A series of probes and primers were used to detect the various mRNA transcripts of the genes of TSLP, IL-8 and GAPDH in human cell lines. All the Taqman probes and primers for the experiments here-in described were supplied as pre-validated sets by Applied Biosystems, Inc. (see Table 2). […]

mTSLP mRNA = experiment: Initial screening: mouse TSLP mRNA knock-down by RT-PCR (Taqman) after RNAiMax transfection of NIH 3T3 cells; format: cell-based; details: 10 nM siNA, 24 hrs post-transfection, mean ± s.d., summary from 2 screens
Method: as §1
NIH 3T3 (murine; ATCC cat#CRL-1658): Cells were cultured at 37° C. in the presence of 5% CO2 and grown in Dulbecco's modified Eagle's medium (DMEM) with 4 mM L-glutamine adjusted to contain 1.5 g/L sodium bicarbonate and 4.5 g/L glucose and supplemented with fetal bovine serum at a final concentration of 10% and 100 μg/mL of streptomycin and 100 U/mL penicillin.
as §2, §3, §4, §5, §6, §7, §8, §9, §10
A series of probes and primers were used to detect the various mRNA transcripts of the genes of TSLP, IL-8 and GAPDH in human cell lines. […]

| Substance | % KD TSLP (TSLP mRNA) | % KD mTSLP NIH3T3 (mTSLP mRNA) [%] |
| --- | --- | --- |
| 25433-DC: siNA duplex: sense B cGcucGccAAAGAAAuGuu TTB (SEQ ID NO: 49), antisense AACAuuucuuuGGcGAGcGUU (SEQ ID NO: 50) (sense CGCUCGCCAAAGAAAUGUUTT; antisense AACAUUUCUUUGGCGAGCGUU; sense: DNA at AGT, 2'-fluoro at CU, [invAb] at 5' end, 3' end, backbone not given here; antisense: sugars from the 5' end rrrmfffffffmmfmmmfmmm, backbone not given here) | 36 ± 25^ % | 7.5 ± 3.3 |
| 25464-DC: siNA duplex: sense B ccAGAAuAAAAuuAGcuuu TTB (SEQ ID NO: 111), antisense AAAGcuAAuuuuAuucuGGUU (SEQ ID NO: 112) (sense CCAGAAUAAAAUUAGCUUUTT; antisense AAAGCUAAUUUUAUUCUGGUU; sense: DNA at AGT, 2'-fluoro at CU, [invAb] at 5' end, 3' end, backbone not given here; antisense: sugars from the 5' end rrrmffmmffffmffffmmmm, backbone not given here) | 3 ± 39% | 89.2 ± 1.1 |
| 25457-DC: siNA duplex: sense B cucAGGAAAuGGcAcAAGA TTB (SEQ ID NO: 97), antisense UCUuGuGccAuuuccuGAGUU (SEQ ID NO: 98) (sense CUCAGGAAAUGGCACAAGATT; antisense UCUUGUGCCAUUUCCUGAGUU; sense: DNA at AGT, 2'-fluoro at CU, [invAb] at 5' end, 3' end, backbone not given here; antisense: sugars from the 5' end rrrfmfmffmffffffmmmmm, backbone not given here) | 32 ± 2% | 81.5 ± 3.7 |
| 25469-DC: siNA duplex: sense B AAAuGGGAAAuGAGcAAuA TTB (SEQ ID NO: 121), antisense UAUuGcucAuuucccAuuuUU (SEQ ID NO: 122) (sense AAAUGGGAAAUGAGCAAUATT; antisense UAUUGCUCAUUUCCCAUUUUU; sense: DNA at AGT, 2'-fluoro at CU, [invAb] at 5' end, 3' end, backbone not given here; antisense: sugars from the 5' end rrrfmfffmffffffmfffmm, backbone not given here) | −1 ± 18.8% | −17.2 ± 17.9 |
| 25431-DC: siNA duplex: sense B GcuucAGGAuGcAuuGcAA TTB (SEQ ID NO: 45), antisense UUGcAAuGcAuccuGAAGcUU (SEQ ID NO: 46) (sense GCUUCAGGAUGCAUUGCAATT; antisense UUGCAAUGCAUCCUGAAGCUU; sense: DNA at AGT, 2'-fluoro at CU, [invAb] at 5' end, 3' end, backbone not given here; antisense: sugars from the 5' end rrrfmmfmfmffffmmmmfmm, backbone not given here) | −11 ± 39.5% | −10.8 ± 14.2 |
| 25468-DC: siNA duplex: sense B uGcuGAAuAAAGuAAuucu TTB (SEQ ID NO: 119), antisense AGAAuuAcuuuAuucAGcAUU (SEQ ID NO: 120) (sense UGCUGAAUAAAGUAAUUCUTT; antisense AGAAUUACUUUAUUCAGCAUU; sense: DNA at AGT, 2'-fluoro at CU, [invAb] at 5' end, 3' end, backbone not given here; antisense: sugars from the 5' end rrrmffmffffmfffmmfmmm, backbone not given here) | 30 ± 12.9% | 32.2 ± 15.2 |
| 25444-DC: siNA duplex: sense B GuGucAcAAuuAcAAGGAu TTB (SEQ ID NO: 71), antisense AUCcuuGuAAuuGuGAcAcUU (SEQ ID NO: 72) (sense GUGUCACAAUUACAAGGAUTT; antisense AUCCUUGUAAUUGUGACACUU; sense: DNA at AGT, 2'-fluoro at CU, [invAb] at 5' end, 3' end, backbone not given here; antisense: sugars from the 5' end rrrfffmfmmffmfmmfmfmm, backbone not given here) | 80 ± 5.3% | 19.5 ± 19 |
| 25467-DC: siNA duplex: sense B cAAGAGccuuGcAcAucuA TTB (SEQ ID NO: 117), antisense UAGAuGuGcAAGGcucuuGUU (SEQ ID NO: 118) (sense CAAGAGCCUUGCACAUCUATT; antisense UAGAUGUGCAAGGCUCUUGUU; sense: DNA at AGT, 2'-fluoro at CU, [invAb] at 5' end, 3' end, backbone not given here; antisense: sugars from the 5' end rrrmfmfmfmmmmfffffmmm, backbone not given here) | −13 ± 31.7% | −31 ± 7.4 |
| 25452-DC: siNA duplex: sense B uuGuGAAcAcuuuuGAAAA TTB (SEQ ID NO: 87), antisense UUUucAAAAGuGuucAcAAUU (SEQ ID NO: 88) (sense UUGUGAACACUUUUGAAAATT; antisense UUUUCAAAAGUGUUCACAAUU; sense: DNA at AGT, 2'-fluoro at CU, [invAb] at 5' end, 3' end, backbone not given here; antisense: sugars from the 5' end rrrffmmmmmfmfffmfmmmm, backbone not given here) | 86 ± 3% | 36.4 ± 7.9 |
| 25470-DC: siNA duplex: sense B AAAGuAGAAAAAAAAAuuA TTB (SEQ ID NO: 123), antisense UAAuuuuuuuuucuAcuuuUU (SEQ ID NO: 124) (sense AAAGUAGAAAAAAAAAUUATT; antisense UAAUUUUUUUUUCUACUUUUU; sense: sugars from the 5' end d4 f1 d11 f2 d3, [invAb] at 5' end, 3' end, backbone not given here; antisense: sugars from the 5' end r3 f11 m1 f4 m2, backbone not given here) | 28 ± 22.6% | 19.3 ± 10.3 |
| 25455-DC: siNA duplex: sense B AcAGAAGAGuuucuuAAcu TTB (SEQ ID NO: 93), antisense AGUuAAGAAAcucuucuGuUU (SEQ ID NO: 94) (sense ACAGAAGAGUUUCUUAACUTT; antisense AGUUAAGAAACUCUUCUGUUU; sense: DNA at AGT, 2'-fluoro at CU, [invAb] at 5' end, 3' end, backbone not given here; antisense: sugars from the 5' end rrrfmmmmmmfffffffmfmm, backbone not given here) | 79 ± 11.3% | 4.9 ± 26 |
